# Like-named read-outs stand apart in the source and are kept apart here.
# Legend:
# human DOR = biological target: T1, human DOR (Homo sapiens, UniProt P41143); assay: Radioligand competitive binding assay with [3H]DPDPE, membranes from CHO-hDOR cells; settings: compound at 10 μM
# T1 construct: expressed in transfected cells; host or cells: CHO cells (CHO-hDOR), gift of Lawrence Toll, SRI International
# human MOR = biological target: T2, human MOR (Homo sapiens, UniProt P35372); assay type: binding
# T2 construct: expressed in transfected cells; host or cells: CHO cells (CHO-hMOR), gift of Lawrence Toll, SRI International
# human KOR [1] = biological target: T3, human KOR (Homo sapiens, UniProt P41145); assay: [35S]GTPγS binding assay, antagonist study: inhibition of U69,593-induced stimulation, CHO-hKOR membranes; assay type: biochemical; settings: U69,593 1 μM
# human KOR [2] = biological target: T3, human KOR; assay: Radioligand competitive binding assay with [3H]U69,593, membranes from CHO-hKOR cells; settings: for inhibition at 10 µM: read-out: inhibition of [3H]U69,593 binding at the KOR; for Ki: read-out: binding affinity Ki
# human KOR [3] = biological target: T3, human KOR; assay: [35S]GTPγS binding assay (G protein activation), CHO-hKOR cell membranes; assay type: biochemical; settings: for Emax: read-out: G protein activation Emax
# human KOR [4] = biological target: T3, human KOR; assay: [35S]GTPγS binding assay, antagonist study: inhibition of U69,593-induced stimulation, CHO-hKOR membranes; assay type: biochemical; settings: U69,593 1 μM; read-out: inhibition of U69,593-induced stimulation of [35S]GTPγS binding, Inhibition
# human KOR [5] = biological target: T3, human KOR; assay: PathHunter β-arrestin2 recruitment assay, U2OS-hKOR-β-arrestin2 cells; assay type: cell-based; settings: for EC50: U2OS cells coexpressing hKOR and β-arrestin2, tested up to 10 μM, read-out: β-arrestin2 recruitment EC50 (dash symbol)
# KOR = settings: cited from earlier work
# human KOR [6] = biological target: T3, human KOR; assay: [35S]GTPγS binding assay, antagonist study: inhibition of U69,593-induced stimulation, CHO-hKOR membranes; assay type: biochemical; parameters: dose or concentration left out as unconfirmed; settings: read-out: inhibition of U69,593-induced stimulation of [35S]GTPγS binding, Inhibition
smiles,measurement,setting,value
"CCO[C@@]12Cc3c([nH]c4ccccc34)[C@]3(C)Oc4c(O)ccc5c4[C@@]31CCN(CC1CC1)C2C5 [HS378, reference compound]",binding at the DOR,human DOR,significant binding
Cc1cc2n(n1)C1(CCN(C(=O)c3ccc(Cl)cc3)CC1)CC(=O)N2CC1CC1 [SalA-VS-07],binding at the DOR,human DOR,no substantial binding
same,binding at the MOR,human MOR,no substantial binding
same,IC50,human KOR [1],1270 ± 334 nM
same,inhibition at 10 µM,human KOR [2]; compound at 10 μM,> 50%
same,Ki,human KOR [2],423 ± 97 nM
same,EC50,human KOR [3],181 ± 49 nM
same,Emax,"human KOR [3]; relative to maximal effect of U69,593 (as 100%)",48 ± 7%
same,inhibition,human KOR [4],52 ± 4%
same,β-arrestin2 recruitment upon activation of the KOR (in words),human KOR [5],failed to induce β-arrestin2 recruitment
same,EC50,human KOR [5],> 10000 nM
Cc1cc2n(n1)C1(CCN(C(=O)c3cccc(F)c3)CC1)CC(=O)N2CC1CC1 [SalA-VS-08],binding at the DOR,human DOR,no substantial binding
same,binding at the MOR,human MOR,no substantial binding
same,increased affinity at the KOR than SalA-VS-07,human KOR [2],about 6 fold
same,Ki,human KOR [2],68.5 ± 5.5 nM
same,inhibition at 10 µM,human KOR [2],> 50%
same,EC50,human KOR [3],854 ± 60 nM
same,lower agonist potency at the KOR compared to SalA-VS-07,human KOR [3],5 fold
same,Emax,human KOR [3],108 ± 8%
same,β-arrestin2 recruitment upon activation of the KOR (in words),human KOR [5],failed to induce β-arrestin2 recruitment
same,EC50,human KOR [5],> 10000 nM
Cc1cc2n(n1)C1(CCN(C(=O)c3ccncc3)CC1)CC(=O)N2CC1CC1 [SalA-VS-09],KOR activity (in words),human KOR [2]; binding screen at 10 μM,inactive
"COC(=O)[C@@H]1C[C@H](O)C(=O)[C@H]2[C@@]1(C)CC[C@H]1C(=O)O[C@H](c3ccoc3)C[C@]21C [SalB, Salvinorin B]",activity at the KOR (in words),KOR,inactive
"Oc1ccc2c3c1O[C@H]1c4[nH]c5c(c4C[C@@]4(O)[C@@H](C2)N(CC2CC2)CC[C@]314)C[C@@]1(O)[C@H]2Cc3ccc(O)c4c3[C@@]1(CCN2CC1CC1)[C@H]5O4 [nor-BNI, nor-binaltorphimine, reference compound]",inhibition,human KOR [6],92 ± 6%

# From article PMC11345774, “Discovery of Novel, Selective, and Nonbasic Agonists for the Kappa-Opioid Receptor Determined by Salvinorin A-Based Virtual Screening” (Journal of Medicinal Chemistry, 2024)
